Key:
Hepatitis B virus [1] = test: Antiviral activity against Hepatitis B virus infected in human HepG2(2.2.15) cells assessed as reduction in hepatitis B surface antigen release; format: functional, organism-based
[2] = Selectivity index, ratio of CC50 for human HepG2(2.2.15) cells to IC50 for HBV by hepatitis B surface antigen release detection assay; format: functional
[3] = Selectivity index, ratio of CC50 for human HepG2(2.2.15) cells to IC50 for HBV by viral DNA replication detection assay; format: functional
[4] = Cytotoxicity against human HepG2(2.2.15) cells; format: cell-based
Hepatitis B virus [5] = test: Antiviral activity against Hepatitis B virus infected in human HepG2(2.2.15) cells assessed as reduction in hepatitis B e-antigen release; format: functional, organism-based
Hepatitis B virus [6] = test: Antiviral activity against Hepatitis B virus infected in human HepG2(2.2.15) cells assessed as reduction in viral DNA replication; format: functional, organism-based

Compound | IC50 (Hepatitis B virus [1]) [µM] | IC50 (Hepatitis B virus [5]) [µM] | IC50 (Hepatitis B virus [6]) [µM] | Ratio CC50/IC50 [2] | Ratio CC50/IC50 [3] | CC50 [4] [µM]
CC1(C)C(=O)CC[C@]2(C)[C@H]3C(=O)C=C4[C@@H]5C[C@@](C)(C(=O)O)CC[C@]5(C)CC[C@@]4(C)[C@]3(C)CC[C@@H]12 | 433 | > 467 | 189 | 1.1 | 2.5 | 467
CC1(C)[C@@H](O)CC[C@]2(C)[C@H]3CC=C4[C@@H]5C[C@@](C)(C(=O)O)CC[C@]5(C)CC[C@@]4(C)[C@]3(C)CC[C@@H]12 | 48.7 | > 1370 | 47 | 3.3 | 3.4 | 162
CC1(C)[C@@H](O)CC[C@]2(C)[C@H]3C(=O)C=C4[C@@H]5C[C@@](C)(C(=O)OCc6cccc(Cl)c6)CC[C@]5(C)CC[C@@]4(C)[C@]3(C)CC[C@@H]12 | > 1850 | > 1850 | 529 |  | >3.5 | > 1850
C=CCCOC(=O)[C@@]1(C)CC[C@]2(C)CC[C@]3(C)C(=CC(=O)[C@@H]4[C@@]5(C)CC[C@H](O)C(C)(C)[C@@H]5CC[C@]43C)[C@@H]2C1 | > 1750 | > 1750 | 332 |  | >5.3 | > 1750
CC1(C)[C@@H](O)CC[C@]2(C)[C@H]3C(=O)C=C4[C@@H]5C[C@@](C)(C(=O)OCc6ccc(C(F)(F)F)cc6)CC[C@]5(C)CC[C@@]4(C)[C@]3(C)CC[C@@H]12 | > 1370 | > 1370 | 5.36 |  | >255.9 | > 1370
CC1(C)[C@@H](O)CC[C@]2(C)[C@H]3C(=O)C=C4[C@@H]5C[C@@](C)(C(=O)OCc6cccc7cccnc67)CC[C@]5(C)CC[C@@]4(C)[C@]3(C)CC[C@@H]12 | > 1700 | > 1700 | 15.3 |  | >111 | > 1700
CCOC(=O)COC(=O)[C@@]1(C)CC[C@]2(C)CC[C@]3(C)C(=CC(=O)[C@@H]4[C@@]5(C)CC[C@H](O)C(C)(C)[C@@H]5CC[C@]43C)[C@@H]2C1 | > 1200 | > 1200 | 139 |  | >8.7 | > 1200
CC1(C)[C@@H](O)CC[C@]2(C)[C@H]3C(=O)C=C4[C@@H]5C[C@@](C)(C(=O)OCc6ccccc6C#N)CC[C@]5(C)CC[C@@]4(C)[C@]3(C)CC[C@@H]12 | > 1540 | > 1540 | 195 |  | >7.9 | > 1540
CC(=O)O[C@H]1CC[C@]2(C)[C@H]3C(=O)C=C4[C@@H]5C[C@@](C)(C(=O)O)CC[C@]5(C)CC[C@@]4(C)[C@]3(C)CC[C@H]2C1(C)C [ACETOXOLONE] | 1000 | > 518 | 121 |  | 4.3 | 518
CC1(C)[C@@H](O)CC[C@]2(C)[C@H]3C(=O)C=C4[C@@H]5C[C@@](C)(C(=O)OCc6ccc(OC(F)(F)F)cc6)CC[C@]5(C)CC[C@@]4(C)[C@]3(C)CC[C@@H]12 | > 1130 | > 1130 | 160 |  | >7.1 | > 1130

The next lines start with results.

IC50 (Hepatitis B virus [1]) [µM] | IC50 (Hepatitis B virus [5]) [µM] | IC50 (Hepatitis B virus [6]) [µM] | Compound | Ratio CC50/IC50 [2] | Ratio CC50/IC50 [3] | CC50 [4] [µM]
927 | > 2060 | 23.7 | CC1(C)[C@@H](O)CC[C@]2(C)[C@H]3C(=O)C=C4[C@@H]5C[C@@](C)(C(=O)OCc6ccc(-n7cccn7)cc6)CC[C@]5(C)CC[C@@]4(C)[C@]3(C)CC[C@@H]12 | 2.1 | 83.6 | 1990
347 | > 1110 | 64.9 | CC1(C)[C@@H](O)CC[C@]2(C)[C@H]3CC=C4[C@@H]5C[C@@](C)(C(=O)OCC(N)=O)CC[C@]5(C)CC[C@@]4(C)[C@]3(C)CC[C@@H]12 | 1.4 | 7.3 | 472
36.3 | > 1480 | 9.08 | Cc1nc(COC(=O)[C@@]2(C)CC[C@]3(C)CC[C@]4(C)C(=CC(=O)[C@@H]5[C@@]6(C)CC[C@H](O)C(C)(C)[C@@H]6CC[C@]54C)[C@@H]3C2)cs1 | 1 | 4.1 | 37.2
57.4 | > 1180 | 14.2 | CC1(C)[C@@H](O)CC[C@]2(C)[C@H]3C(=O)C=C4[C@@H]5C[C@@](C)(C(=O)OCCOc6ccccc6)CC[C@]5(C)CC[C@@]4(C)[C@]3(C)CC[C@@H]12 | 1.8 | 7.1 | 101
> 986 | > 986 | 5.71 | CC1(C)[C@@H](O)CC[C@]2(C)[C@H]3C(=O)C=C4[C@@H]5C[C@@](C)(C(=O)OCc6ccc(I)cc6)CC[C@]5(C)CC[C@@]4(C)[C@]3(C)CC[C@@H]12 |  | >172.6 | > 986
588 | > 1310 | 19.5 | CC1(C)[C@@H](O)CC[C@]2(C)[C@H]3C(=O)C=C4[C@@H]5C[C@@](C)(C(=O)OCc6cccc(F)c6)CC[C@]5(C)CC[C@@]4(C)[C@]3(C)CC[C@@H]12 | >2.2 | >67.2 | > 1310
678 | > 1100 | 67 | CC1(C)[C@@H](O)CC[C@]2(C)[C@H]3C(=O)C=C4[C@@H]5C[C@@](C)(C(=O)OCC6CC6)CC[C@]5(C)CC[C@@]4(C)[C@]3(C)CC[C@@H]12 |  | 10.4 | 696
20.9 | 130 | 39.3 | CC1(C)[C@@H](O)CC[C@]2(C)[C@H]3C(=O)C=C4[C@@H]5C[C@@](C)(C(=O)O)CC[C@]5(C)CC[C@@]4(C)[C@]3(C)CC[C@@H]12 [ENOXOLONE] | 2.6 | 1.4 | 55.1
54.4 | > 1210 | 21.2 | CC1(C)[C@@H](O)CC[C@]2(C)[C@H]3C(=O)C=C4[C@@H]5C[C@@](C)(C(=O)OCc6ccc(S(C)(=O)=O)cc6)CC[C@]5(C)CC[C@@]4(C)[C@]3(C)CC[C@@H]12 | 18.8 | 48.3 | 1030
145 | > 1390 | 13.2 | CC1(C)[C@@H](O)CC[C@]2(C)[C@H]3C(=O)C=C4[C@@H]5C[C@@](C)(C(=O)OCCCCCCCCO)CC[C@]5(C)CC[C@@]4(C)[C@]3(C)CC[C@@H]12 | 1.1 | 11.9 | 157
1010 | > 1920 | 298 | CC1(C)[C@@H](O)CC[C@]2(C)[C@H]3C(=O)C=C4[C@@H]5C[C@@](C)(C(=O)OCCO)CC[C@]5(C)CC[C@@]4(C)[C@]3(C)CC[C@@H]12 |  | 1.3 | 380
43.3 | > 1810 | 18.4 | CC1(C)[C@@H](O)CC[C@]2(C)[C@H]3C[C@H]4O[C@]45[C@@H]4C[C@@](C)(C(=O)O)CC[C@]4(C)CC[C@@]5(C)[C@]3(C)CC[C@@H]12 |  | 1.9 | 35.7
810 | > 1810 | 89.5 | CC1(C)[C@@H](O)CC[C@]2(C)[C@H]3C(=O)C=C4[C@@H]5C[C@@](C)(C(=O)OC6CCC6)CC[C@]5(C)CC[C@@]4(C)[C@]3(C)CC[C@@H]12 |  | 8.3 | 742
129 | > 1250 | 47.7 | CC1(C)[C@@H](O)CC[C@]2(C)[C@H]3C(=O)C=C4[C@@H]5C[C@@](C)(C(=O)OCCCCCCO)CC[C@]5(C)CC[C@@]4(C)[C@]3(C)CC[C@@H]12 |  | 1.4 | 67.3

From ChEMBL document CHEMBL2021793, “Synthesis, biological evaluation and structure-activity relationships of glycyrrhetinic acid derivatives as novel anti-hepatitis B virus agents” (Bioorg Med Chem Lett, 2012)
